Data set [1] concerns human H9 cell-derived neurons. As to the kind of experiment: Growth assay for human H9 cells. The format is cell-based. To be noted: 50 ng/ml, 24 h, vs PBS, FIG. 7B. The text has this: B: Human Link4 induced neurite outgrowth in human H9 cell-derived neurons. Human neurons were cultivated with commercially available human neural stem cells (H9 cells), which were then differentiated to become neurons. […] The growth assay for human H9 cells described herein can be used to easily detect effects of the derivative peptides of the present invention on human neurons. In particular, this assay can be used to quickly test whether derivative peptides falling within the scope of the present invention are functional.
H9 human neural stem cells (H9 hNSCs) were purchased from Gibco and expanded according to the manufacturer's instructions. For consecutive neural differentiation hNSCs were harvested and reseeded on glass coverslips coated with Matrigel (High Concentration, Growth Factor Reduced; Corning; diluted 1:100 in Knockout DMEM [Gibco]) at a density of 25.000 cells/cm^2. hNSCs were allowed to rest for 48 hours in a basal neuronal medium (Neurobasal, 1X B27, 1x Glutamax, 1x Penicillin/Streptomycin, all from Gibco) before changing to EnStem A Neural Differentiation Medium (SCM017, Millipore) for a further 4 days. Cultures were treated with recombinant human IL-4 (Peprotech) or human Link4 at 50 ng/ml or equal volumes of PBS for 24 h. […]

Data set [2] concerns experimental autoimmune encephalomyelitis (EAE) mice. The data set is described as follows: EAE clinical score, treatment during the chronic phase. The format is in vivo, mouse. To be noted: chronic phase of EAE, vs PBS. The procedure: To test whether Link4 has similar effects to IL-4 in vivo, two pilot experiments were performed. In the first experiment (FIG. 3A), B16 mice were subjected to EAE and treated with IL-4, Link4, Ph8 and PBS (n=6-7 animals per group) via lumbar intrathecal injection directly into the cerebrospinal fluid (CSF) every other day for 14 days, in the chronic phase of the disease starting from day 5 after the first disease peak (grey bar). […] For better clinical translation, the treatment was then switched to nasal treatment with IL-4 and Link4 (FIG. 3B; 2 pooled experiments, n=15-16 per group). Nasally applied treatments can enter the brain through the cribriform plate, where olfactory nerve fibers cross through the bone, resulting in a connection between the roof of the nasal cavity and the brain (C. F. Xiao, F. J. Davis, B. C. Chauhan, K. L. Viola, P. N. Lacor, P. T. Velasco, W. L. Klein, and N. B. Chauhan, Brain transit and ameliorative effects of intranasally delivered anti-amyloid-beta oligomer antibody in 5XFAD mice. J Alzheimers Dis 35, 777-788 (2013)). Again, both IL-4 and Link4 treatments were beneficial.
For active EAE, female 9-10-weeks-old C57BI6 mice were immunized as previously described (M. Paterka, J. O. Voss, J. Werr, E. Reuter, S. Franck, T. Leuenberger, J. Herz, H. Radbruch, T. Bopp, V. Siffrin, and F. Zipp, Dendritic cells tip the balance towards induction of regulatory T cells upon priming in experimental autoimmune encephalomyelitis. J Autoimmun 67, 108-114 (2017)) by subcutaneous injection of 200 μg myelin oligodendrocyte […] 35-55 (MOG35-55) mixed with complete Freund adjuvant (CFA). Following the MOG35-55 immunization 400 ng pertussis toxin (PTX) was administered intraperitoneally at the day of immunizaton and after 24 h. Clinical signs were scored using the following parameters:
Treatment with rIL-4 (1 μg, Peprotech), Ph8 (1 μg, custom synthesized, Schafer N), Link4 (1 μg, custom synthesized, Schafer N) or vehicle (PBS) was performed during the chronic phase of the disease models by lumbar intrathecal injection (R. Lu and A. Schmidtko, Direct intrathecal drug delivery in mice for detecting in vivo effects of cGMP on pain processing. Methods Mol Biol 1020, 215-221 (2013)) or nasal application of IL-4 and Link4 was performed according to published procedures (C. F. Xiao, F. J. Davis, B. C. Chauhan, K. L. Viola, P. N. Lacor, P. T. Velasco, W. L. Klein, and N. B. Chauhan, Brain transit and ameliorative effects of intranasally delivered anti-amyloid-beta oligomer antibody in SXFAD mice. J Alzheimers Dis 35, 777-788 (2013)). Mice were pre-trained to avoid stress and held at a 45 degree angle to apply IL-4 solution (1 μg, Peprotech) to the nostrils using a pipette tip.

A further data set deals with CD4+ T cells. The data set is described as follows: TH2 differentiation of naive T cells. The format is cell-based, mouse. To be noted: different concentrations, FIG. 4B. The procedure: (§1) A-B: Effects of incubation with IL-4 and different concentrations of Link4 and Link13 on the differentiation of A: CD11b^+ bone marrow-derived macrophages (BMDMs) into F80^+CD206^+ cells, and B: CD4^+ T cells into Gata3^+ cells. C-D: FACS results for different populations of T cells and CD11b^+MHCII^+ monocytes/macrophages/microglia of immune cells isolated from C: spleen and D: central nervous system (CNS) of EAE mice treated with PBS, IL-4 or Link4.
(§2) In order to investigate whether Link4 and Link13 are able to modulate immune cells, in vitro assays were performed on bone marrow-derived macrophages (BDMBs) and on naïve T cells.
For the isolation of T lymphocytes 5-8 week old C57BL/6 mice were sacrificed by cervical dislocation and the spleens and lymph nodes (LN) were isolated and rubbed trough a 100 μm cell strainer into a 50 ml tube with washing medium (5% FCS, 1% P/S,1% HEPES in PBS). After washing, the cells were centrifuged for 5 min at 550 g at 4° C. To remove the red blood cells the […] was re-suspended in lysis buffer followed by centrifugation (5 min, 550 g, 4° C.). The cells were resuspended in MACS buffer and magnetic lymphocyte sorting was performed on ice, using the MidiMACS and QuadroMACS Seperators. A CD4 untouched and CD8 touched cell sort was performed a washing step in ml MACS buffer (5 min, 550 g, 4° C.). Cells were incubated with CD4 T cell biotin antibody cocktail (Miltenyi Biotec) in MACS buffer for 5 min at 4° C. Subsequently, anti-biotin microbeads and CD8 microbeads in MACS buffer was added. CD8 microbeads were added to reduce the possible contamination of CD8^+ lymphocytes. After 10 min of incubation at 4° C. the cells were washed again and resuspended in MACS buffer. MACS columns were pre equilibrated and topped with pre-separation filters (30 μm). A maximum of 300×10^6 cells were added to each column followed by 3 consecutive washing steps with MACS buffer. […] The purity of the magnetic cells sorts was assessed by comparing pre- and post-sort samples by flow cytometry. […]

The test system of data set [3] is CD11b+ bone marrow-derived macrophages (BMDMs). As to the kind of experiment: Differentiation of bone marrow-derived macrophages. The format is cell-based, mouse. The note with it: different concentrations, FIG. 4A. The procedure:
as §1, §2
Murine BMDMs were isolated from adult C57BL/6 mice. The tibia and femur bones were flushed with sterile PBS and the bone marrow was collected in washing medium. After filtering the cell suspension trough a 100 μm nylon mesh, the cells were centrifuged (5 min, 550 g, 4° C.) and resuspended in mouse medium (10% FCS, 1% P/S, 1% L-glutamine, 0.1% β-mercaptoethanol, 1% HEPES in RPMI buffer). For the in vitro generation of BMDMs cells were plated in 6 well-plates and exposed to 20 ng/ml Macrophage […] (M-CSF) for 4 days. For the activation of the cells, Dexametason (5×10^−7M), LPS (10 μg/ml) and IL-4 (10 ng/ml) were added to the culture for the following 3 days.

For data set [4] the following is noted: cited from earlier work.
For data set [5], the system named is mouse embryonic fibroblasts (Mef). As to the kind of experiment: CellTiter-blue cell viability assay (ctb), fibroblasts. The format is cell-based. To be noted: Mef cells, increasing concentrations, FIG. 2A. The procedure:
(§3) Toxicity was checked by subjecting mouse embryonic fibroblasts (Mef) and the hippocampal cell line HT22 to a CellTiter-blue cell viability assay (ctb).
(§4) Mouse embryonic fibroblasts (Mef) (Sigma-Aldrich) and hippocampal HT22 (ThermoScientific) cells were cultured according to the manufacturer's protocols. Ctb assays were performed according to the manufacturer's protocols (Promega).
In general terms: Resazurin is reduced to fluorescent resorufin, in cell work by metabolically active cells.

Data set [6] has as its system hippocampal cell line HT22. The data set is described as follows: CellTiter-blue cell viability assay (ctb), hippocampal cell line. In kind it is cell-based. The note with it: HT22 cells, increasing concentrations, FIG. 2B. The procedure:
as §3, §4

Where [7] appears, read: lumbar intrathecal injection, 1 μg every other day for 14 days.

The source of these data is US20200377568A1, “Novel IL-4-/IL-13-derived peptide compounds for the treatment or prevention of neurodegenerative or neuroinflammatory diseases” (Universitätsmedizin der Johannes Gutenberg-Universität Mainz, priority 2018, published 2020).

“Also recorded” adds a separate entry of the source. Peptide text beside a SMILES is read from it.

With “WNRSEIIKTGSKTIMREKY (listed as Homo sapiens) [human Link4]”, in data set [1], the neurite outgrowth result is given as “increase neurite outgrowth”. Further, the clinical score entry in data set [2] (setting [7]) was “equally effective as mouse Link4”.
interleukin-4 [IL-4]: in the data set with CD4+ T cells, the “differentiation of CD4+ T cells into Gata3+ cells” value is recorded as “observed”. Also, the “differentiation of CD11b+ BMDMs into F80+CD206+ cells” value in data set [3] was “increased the expression of the differentiation markers F80 and CD206”. Further, the clinical score entry in data set [2] (setting [7]) is “ameliorate clinical symptoms; also recorded: significant improvement in the clinical score; also recorded: significant amelioration of the clinical score”; in data set [2] (lumbar intrathecal injection, 1 μg every other day for 14 days, listed as mouse full length IL-4), “reducing disease symptoms”; in data set [2] (nasal application) it was “equally effective; also recorded: significant improvement in the clinical score; also recorded: beneficial”. Moreover, the “half-life in blood plasma” value in data set [4] is given as “very short half-life”.
On to “LIRSELIEELSNITGSFITKLLSYTKQ (listed as Mus musculus) [Link13]”, for which the “differentiation of CD4+ T cells into Gata3+ cells” value in the data set with CD4+ T cells is “did not take place”. For the same molecule, the “differentiation of CD11b+ BMDMs into F80+CD206+ cells” value in data set [3] is on record as “did not occur”.
For the molecule `CC[C@H](C)[C@H](NC(=O)CNC(=O)[C@@H](NC(=O)[C@@H](NC(=O)[C@@H](N)CCC(=O)O)[C@@H](C)CC)[C@@H](C)CC)C(=O)NCC(=O)N1CCC[C@H]1C(=O)N[C@@H](CCCNC(=N)N)C(=O)N[C@@H](CC(C)C)C(=O)N[C@@H](Cc1ccccc1)C(=O)N[C@@H](CCCNC(=N)N)C(=O)N[C@@H](C)C(=O)N[C@@H](Cc1ccccc1)C(=O)N[C@@H](CCCNC(=N)N)C(=O)N[C@@H](CS)C(=O)N[C@@H](CO)C(=O)NCC(=O)N[C@@H](CO)C(=O)N[C@@H](CCCNC(=N)N)C(=O)N[C@@H](C)C(=O)N[C@@H](CO)C(=O)N[C@@H](CCCCN)C(=O)N[C@H](C(=O)N[C@@H](CC(C)C)C(=O)N[C@@H](CCCNC(=N)N)C(=O)N[C@H](C(=O)N[C@@H](Cc1ccccc1)C(=O)N[C@@H](Cc1ccc(O)cc1)C(=O)N[C@@H](CC(C)C)C(=O)O)[C@@H](C)CC)C(C)C` [AvoC] (H-EIIGIGPRLFRAFRCSGSRASKVLRIFYL-OH; N-terminus and C-terminus assumed), the “toxic effects on fibroblasts (cell viability)” value in data set [5] is recorded as “no toxic effects”. The “toxic effects on hippocampal neurons (cell viability)” value in data set [6] is reported as “no toxic effects”.

B1: full length IL-4: recombinant human IL-4 (Peprotech) used on human H9 cell-derived neurons (protein, UniProt P05112 25-153, looked up)
Interleukin-4: HKCDITLQEIIKTLNSLTEQKTLCTELTVTDIFAASKNTTEKETFCRAATVLRQFYSHHEKDTRCLGATAQQFHRHKQLIRFLKRLDRNLWGLAGLNSCPVKEANQSTLENFLERLKTIMREKYSKCSS
In the case of B1, the neurite outgrowth result in data set [1] is “increase neurite outgrowth”.
